Test [1] addresses T1, Metabotropic glutamate receptor 4 (Rattus norvegicus, UniProt P31423). Put plainly: Stimulation of [3H]phosphatidylinositol accumulation by rat Metabotropic glutamate receptor 4 co-expressed with Gqi9 protein in HEK 293 cells; Active. The format is functional, cell-based, HEK293.
For test [2], the target named is T1, Metabotropic glutamate receptor 4. Nature of the test: Stimulation of [3H]phosphatidylinositol accumulation by rat Metabotropic glutamate receptor 4 co-expressed with Gqi9 protein in HEK 293 cells; Inactive. In kind it is functional, cell-based, HEK293.
Test [3] has the same target. Put plainly: Effective concentration against Metabotropic glutamate receptor 4.
In test [4] the target is Metabotropic glutamate receptor 4 (Rattus norvegicus, UniProt P31423, D309A). Put plainly: Effective concentration against D309A mutant Metabotropic glutamate receptor 4.
Test [5] has as its target T1, Metabotropic glutamate receptor 4. Nature of the test: Stimulation od [3H]phosphatidylinositol accumulation by rat Metabotropic glutamate receptor 4 co-expressed with Gqi9 protein in HEK 293 cells. In kind it is functional, cell-based, HEK293.

From ChEMBL document CHEMBL1143572, “Virtual screening workflow development guided by the "receiver operating characteristic" curve approach. Application to high-throughput docking on metabotropic glutamate receptor subtype 4” (J Med Chem, 2005) come the findings set out here.

T1 sequence (P31423 whole entry): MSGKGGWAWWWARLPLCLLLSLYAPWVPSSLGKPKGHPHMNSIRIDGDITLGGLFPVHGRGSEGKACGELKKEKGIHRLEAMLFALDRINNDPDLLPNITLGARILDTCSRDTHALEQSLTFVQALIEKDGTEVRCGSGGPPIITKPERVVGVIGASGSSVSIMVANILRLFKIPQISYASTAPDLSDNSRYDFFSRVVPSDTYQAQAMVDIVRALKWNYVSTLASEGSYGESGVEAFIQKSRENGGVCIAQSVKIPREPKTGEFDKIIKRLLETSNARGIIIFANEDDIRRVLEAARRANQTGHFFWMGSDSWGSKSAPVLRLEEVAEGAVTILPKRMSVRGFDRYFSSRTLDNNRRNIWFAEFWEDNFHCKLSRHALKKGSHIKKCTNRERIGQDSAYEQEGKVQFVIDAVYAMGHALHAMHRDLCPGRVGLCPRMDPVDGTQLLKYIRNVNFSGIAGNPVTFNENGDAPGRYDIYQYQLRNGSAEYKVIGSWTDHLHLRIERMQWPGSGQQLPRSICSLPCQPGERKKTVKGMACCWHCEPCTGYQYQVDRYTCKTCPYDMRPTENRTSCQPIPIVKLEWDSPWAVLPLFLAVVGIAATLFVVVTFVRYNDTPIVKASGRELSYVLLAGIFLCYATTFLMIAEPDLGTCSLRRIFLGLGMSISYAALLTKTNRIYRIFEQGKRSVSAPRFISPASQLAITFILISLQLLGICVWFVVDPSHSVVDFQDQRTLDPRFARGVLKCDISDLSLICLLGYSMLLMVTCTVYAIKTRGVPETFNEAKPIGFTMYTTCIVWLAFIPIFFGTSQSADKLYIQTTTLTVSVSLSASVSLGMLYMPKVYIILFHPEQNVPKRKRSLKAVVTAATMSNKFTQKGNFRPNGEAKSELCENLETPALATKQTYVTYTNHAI
Sequence of Metabotropic glutamate receptor 4 (Rattus norvegicus, UniProt P31423, D309A) (P31423 whole entry, looked up, stated change not applied): as the sequence (P31423 whole entry) above

Usually EC50 stands for the concentration needed to bring the measured effect to its halfway point. Higher therefore signals lower potency in that assay. On to `N[C@H](C(=O)O)c1ccc(P(=O)(O)O)cc1`, for which, in test [1], the EC50 was less than 100 µM. Compound `N[C@@H](CCn1oc(=O)[nH]c1=O)C(=O)O` came in with an EC50 in test [2] greater than 100 µM.

In the case of `N[C@H](C(=O)O)c1ccc(C(=O)O)c(C(=O)O)c1`, the EC50 in test [1] is less than 100 µM. Take `N[C@H](Cn1oc(=O)[nH]c1=O)C(=O)O`: the EC50 in test [2] is greater than 100 µM. In test [1], `N[C@@H](CCS(=O)(=O)O)C(=O)O` had an EC50 of less than 100 µM. In test [1], `N[C@@]1(C(=O)O)C[C@H](C(=O)O)[C@H](C(=O)O)C1` gave an EC50 of less than 100 µM. For `N[C@@]1(C(=O)O)CC[C@H](C(=O)O)C1`, the EC50 in test [2] is greater than 100 µM. In the case of `NC1(C(=O)O)C[C@H](C(=O)O)[C@@H](C(=O)O)C1`, the EC50 in test [1] is less than 100 µM. Regarding `N[C@@H](CCP(=O)(O)O)C(=O)O`, the EC50 in test [3] is 0.2 µM; in test [1], less than 100 µM; in test [4] it was 129 µM. In test [2], `N[C@@]1(C(=O)O)CC[C@@H](C(=O)O)C1` yielded an EC50 greater than 100 µM. Turning to `NC1(C(=O)O)CC2CC1C2C(=O)O` (centres undefined), the EC50 in test [1] is less than 100 µM. As to `C=C(C[C@@H](N)C(=O)O)C(=O)O`, the EC50 in test [2] is greater than 100 µM. Still for that read-out and setting: to `N[C@H](C(=O)O)c1cc(O)cc(O)c1` belongs greater than 100 µM. In the case of `N[C@H](C(=O)O)c1ccc(C(=O)O)c(O)c1`, the EC50 in test [2] is greater than 100 µM. On the same count and under the same terms, to `N[C@@]1(C(=O)O)CN[C@@H](C(=O)O)C1` belongs greater than 100 µM. The compound `N[C@H](C(=O)O)[C@@H]1C[C@H]1C(=O)O` gave an EC50 in test [1] of less than 100 µM.

On to `N[C@H](C(=O)O)C12CC(C(=O)O)(C1)C2`, for which the results for the EC50 in test [2] and in test [5] were greater than 100 µM and greater than 1000 µM, respectively. For `C[C@@H](C[C@@H](N)C(=O)O)C(=O)O`, the concentration for a half-maximal effect (EC50) in test [2] is greater than 100 µM. In test [1], `N[C@H](CCC(=O)O)C(=O)O` [D-GLUTAMATE] gave an EC50 of less than 100 µM. Consider `N[C@@H](COP(=O)(O)O)C(=O)O` [DEXFOSFOSERINE], for which the EC50 in test [1] is less than 100 µM. Take `N[C@@]1(C(=O)O)CC[C@H]2[C@H](C(=O)O)[C@H]21` [EGLUMETAD]: the EC50 in test [2] was greater than 100 µM.
